What was measured:
Experiment in all cases: Transient transfection (transactivation) assay in CV-1 cells, GAL4 chimera, SPAP reporter
Type in all cases: cell-based
[1] = target: T1, hPPAR α (Homo sapiens, UniProt Q07869)
T1 construct: expressed in transfected cells; host or cells: CV-1 cells
T1 sequence (Q07869 239-466 limits assumed): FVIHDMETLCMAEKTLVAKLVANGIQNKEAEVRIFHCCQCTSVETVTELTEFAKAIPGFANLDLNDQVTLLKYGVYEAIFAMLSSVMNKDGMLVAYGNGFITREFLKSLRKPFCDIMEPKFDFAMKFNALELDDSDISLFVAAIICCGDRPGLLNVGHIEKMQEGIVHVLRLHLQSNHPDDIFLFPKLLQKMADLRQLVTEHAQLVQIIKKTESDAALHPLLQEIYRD
Source text: (§1) Compounds were screened for functional potency in transient transfection assays in CV-1 cells for their ability to activate the PPAR subtypes (transactivation assay). A previously established chimeric receptor system was utilized to allow comparison of the relative transcriptional activity of the receptor subtypes on the same target gene and to prevent endogenous receptor activation from complicating the interpretation of results. See, for example, Lehmann, J. M.; Moore, L. B.; Smith-Oliver, Oliver T. A.; Wilkison, W. O.; Willson, T. M.; Kliewer, S. A., An antidiabetic thiazolidinedione is a high affinity ligand for peroxisome proliferator-activated receptor gamma (PPAR gamma), J. Biol. Chem., 1995, 270, 12953-6. The ligand binding domains for murine and human PPAR alpha, PPAR gamma, and PPAR delta were each fused to the yeast transcription factor GAL4 DNA binding domain. CV-1 cells were transiently transfected with expression vectors for the respective PPAR chimera along with a reporter construct containing five copies of the GAL4 DNA binding site driving expression of secreted placental alkaline phosphatase (SPAP) and β-galactosidase. After 16 h, the medium was exchanged to DME medium supplemented with 10% delipidated fetal calf serum and the test compound at the appropriate concentration. After an additional 24 h, cell extracts were prepared and assayed for alkaline phosphatase and β-galactosidase activity. Alkaline phosphatase activity was corrected for transfection efficiency using the β-galactosidase activity as an internal standard (see, for example, Kliewer, S. A., et. al. Cell 83, 813-819 (1995)). Rosiglitazone (BRL 49653) was used as a positive control in the hPPAR gamma assay. The positive control in the hPPAR alpha assays was 2-(2-methyl-3-[3-{3-(4-cyclohexylamino)[6-(4-fluorophenylpiperazin-1-yl)][1,3,5]triazin-2-ylamino}propyl]phenylthio)-2-methylpropionic acid. The positive control for PPAR delta assays was 2-{2-methyl-4-[({4-methyl-2-{-{trifluoromethyl)phenyl]-1,3-thiazol-5-yl}methyl)sulfanyl]phenoxy}acetic acid.

[2] = target: T2, hPPAR γ (Homo sapiens, UniProt P37231)
T2 construct: expressed in transfected cells; host or cells: CV-1 cells
T2 sequence (P37231 238-503 limits assumed): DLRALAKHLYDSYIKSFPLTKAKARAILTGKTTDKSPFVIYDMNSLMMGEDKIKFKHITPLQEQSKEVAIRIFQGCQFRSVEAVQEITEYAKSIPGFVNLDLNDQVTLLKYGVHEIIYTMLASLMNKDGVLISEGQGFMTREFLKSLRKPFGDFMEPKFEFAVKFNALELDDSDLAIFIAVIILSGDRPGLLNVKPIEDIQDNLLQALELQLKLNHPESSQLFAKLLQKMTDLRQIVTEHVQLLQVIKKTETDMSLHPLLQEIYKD
Source text: as §1

[3] = target: T3, hPPAR δ (Homo sapiens, UniProt Q03181)
T3 construct: expressed in transfected cells; host or cells: CV-1 cells
T3 sequence (Q03181 211-439 limits assumed): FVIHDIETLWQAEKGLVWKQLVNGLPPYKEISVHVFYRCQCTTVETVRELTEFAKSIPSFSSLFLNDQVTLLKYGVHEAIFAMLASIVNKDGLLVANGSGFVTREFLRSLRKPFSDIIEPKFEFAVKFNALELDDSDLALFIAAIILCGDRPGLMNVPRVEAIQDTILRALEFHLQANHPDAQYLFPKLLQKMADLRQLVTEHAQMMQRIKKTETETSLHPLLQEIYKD
Source text: as §1

EC50 [1]: 10 nM | EC50 [2]: 2220 nM | EC50 [3]: 8.6 µM
SMILES: Cc1nc(-c2ccc(C(F)(F)F)cc2)sc1C(=O)NC1CCCc2cc(OC(C)(C)C(=O)O)ccc21 (stereo not drawn) [Example 4]

Reference: US6867225B2, “Thiazole or oxazole derivatives which are useful in the treatment of cardiovascular and related diseases” (SmithKline Beecham Corporation, priority 2001, dated 2005)
